In brackets after ≈: the same amount, converted by molar mass.
Test: Compound solubility in water
Format: physicochemical

| Structure (SMILES) | solubility |
| --- | --- |
| Cc1cc(C)n2ncc(C(=O)N[C@H]3CC[C@H](OC(C)(C)C)CC3)c2n1 [III-190] | 8.9 µg/mL (≈ 25.8 µM) |
| COc1c(C#N)cccc1-c1cc(C)n2ncc(C(=O)NC(C3CC3)C(F)(F)F)c2n1 (stereo not shown) [III-141] | 1.1 µg/mL (≈ 2.56 µM) |
| Cc1cc(N2CCCN(C(C)C)C2=O)nc2c(C(=O)NC(C)(C)C)cnn12 [III-258] | 26.4 µg/mL (≈ 70.9 µM) |
| CCOc1cccc(-c2cc(C)n3ncc(C(=O)NC(C)C(F)(F)F)c3n2)c1 (stereo not shown) [III-76] | 0.2 µg/mL (≈ 0.51 µM) |
| C#CC(C)(C)NC(=O)c1cnn2c(C)cc(-c3cccc(OC4CC4)c3)nc12 [III-82] | 1.5 µg/mL (≈ 4.01 µM) |
| Cc1cc(-c2cccc3ncsc23)nc2c(C(=O)N[C@@H](C)C3CC3)cnn12 [III-222] | 0.6 µg/mL (≈ 1.59 µM) |
| CO[C@H]1CC[C@H]([C@@H](C)NC(=O)c2cnn3c(C)cc(C)nc23)CC1 [III-403] | 21.4 µg/mL (≈ 64.8 µM) |
| CCc1cc(N2CCOCC2)nc2c(C(=O)NC(C3CC3)C(F)(F)F)cnn12 (stereo not shown) [III-238] | 13.5 µg/mL (≈ 34 µM) |
| Cc1cc(-c2cccc(C#N)c2)nc2c(C(=O)NC(C3CC3)C(F)(F)F)cnn12 (stereo not shown) [III-72] | 0.1 µg/mL (≈ 0.25 µM) |
| Cc1cc(-c2cc(C)n3ncc(C(=O)N[C@@H](C)C4CC4)c3n2)sn1 [III-346] | 18.8 µg/mL (≈ 55.1 µM) |
| Cc1cc(N2CCCN(C(C)C)C2=O)nc2c(C(=O)NC(C)C(F)(F)F)cnn12 (stereo not shown) [III-259] | 25.8 µg/mL (≈ 62.6 µM) |
| Cc1cc(-c2ccon2)nc2c(C(=O)NC(C3CC3)C(F)(F)F)cnn12 (stereo not shown) [III-239] | 0.8 µg/mL (≈ 2.19 µM) |
| Cc1cc(-c2cncc(F)c2)nc2c(C(=O)N[C@@H](C3CC3)C(F)(F)F)cnn12 [III-127] | 2.5 µg/mL (≈ 6.36 µM) |
| Cc1cc(-c2sccc2C#N)nc2c(C(=O)N[C@@H](C)C3CC3)cnn12 [III-301] | 1.1 µg/mL (≈ 3.13 µM) |
| Cc1cc(-c2ccc(F)o2)nc2c(C(=O)NC(C3CC3)C(F)(F)F)cnn12 (stereo not shown) [III-264] | 0.4 µg/mL (≈ 1.05 µM) |
| C#CC(NC(=O)c1cnn2c(C)cc(-c3cccc(Cl)c3)nc12)C(F)(F)F (stereo not shown) [III-99] | 0.2 µg/mL (≈ 0.509 µM) |
| Cc1ncc(-c2cc(C)n3ncc(C(=O)N[C@H](C4CC4)C(F)(F)F)c3n2)o1 [III-247] | 0.6 µg/mL (≈ 1.58 µM) |
| Cc1nc(-c2cc(C)n3ncc(C(=O)NC(C)(C)C4CC4)c3n2)co1 [III-251] | 3.9 µg/mL (≈ 11.5 µM) |
| COc1ccncc1-c1cc(C)n2ncc(C(=O)NC(C)C(F)(F)F)c2n1 (stereo not shown) [III-269] | 12.7 µg/mL (≈ 33.5 µM) |
| Cc1cc(-c2cccc(C(N)=O)c2)nc2c(C(=O)NC(C3CC3)C(F)(F)F)cnn12 (stereo not shown) [III-73] | 0.4 µg/mL (≈ 0.958 µM) |
| Cc1cc(-c2cccnc2)nc2c(C(=O)NC(C(C)C)C(F)(F)F)cnn12 (stereo not shown) [III-41] | 1.9 µg/mL (≈ 5.03 µM) |
| Cc1cc(-c2ccns2)nc2c(C(=O)NC(C)C(F)(F)F)cnn12 (stereo not shown) [III-178] | 0.7 µg/mL (≈ 1.97 µM) |

| Structure (SMILES) | solubility |
| --- | --- |
| Cc1ccncc1-c1cc(C)n2ncc(C(=O)NC(C3CC3)C(F)(F)F)c2n1 (stereo not shown) [III-274] | 2.3 µg/mL (≈ 5.91 µM) |
| Cc1cc(-c2ccns2)nc2c(C(=O)N[C@H](C3CC3)C(F)(F)F)cnn12 [III-100] | 0.9 µg/mL (≈ 2.36 µM) |
| Cc1cc(-c2ccc(F)c(C#N)c2)nc2c(C(=O)N[C@@H](C)C3CC3)cnn12 [III-157] | 2.9 µg/mL (≈ 7.98 µM) |
| Cc1cc(-c2ccns2)nc2c(C(=O)NC(C3CC3)C(F)(F)F)cnn12 (stereo not shown) [III-411] | 0.7 µg/mL (≈ 1.84 µM) |
| Cc1cc(N2CCOCC2)nc2c(C(=O)NC(C)C3CC3)cnn12 (stereo not shown) [III-58] | 20.1 µg/mL (≈ 61 µM) |
| Cc1cc(-c2ccc(C#N)o2)nc2c(C(=O)NC(C3CC3)C(F)(F)F)cnn12 (stereo not shown) [III-185] | 6.3 µg/mL (≈ 16.2 µM) |
| Cc1ccc(-c2cc(C)n3ncc(C(=O)NC(C)C(F)(F)F)c3n2)cn1 (stereo not shown) [III-283] | 12.7 µg/mL (≈ 35 µM) |
| Cc1cc(N2CCCC(F)(F)C2)nc2c(C(=O)NC(C)C3CC3)cnn12 (stereo not shown) [III-61] | 5.5 µg/mL (≈ 15.1 µM) |
| Cc1cc(-c2ccc3c(c2)OCO3)nc2c(C(=O)NC(C)C(F)(F)F)cnn12 (stereo not shown) [III-289] | 0.8 µg/mL (≈ 2.04 µM) |
| Cc1cc(-c2ccc(F)cc2)nc2c(C(=O)NC(C3CC3)C(F)(F)F)cnn12 (stereo not shown) [III-163] | 0.4 µg/mL (≈ 1.02 µM) |
| Cc1cc(N2CCC(F)(F)C2)nc2c(C(=O)NC(C3CC3)C(F)(F)F)cnn12 (stereo not shown) [III-67] | 1.9 µg/mL (≈ 4.71 µM) |
| Cc1cc(-n2ccc(F)n2)nc2c(C(=O)NC(C3CC3)C(F)(F)F)cnn12 (stereo not shown) [III-172] | 0.5 µg/mL (≈ 1.31 µM) |
| Cc1cc(-c2ccc3ocnc3c2)nc2c(C(=O)NC(C)C(F)(F)F)cnn12 (stereo not shown) [III-169] | 1.6 µg/mL (≈ 4.11 µM) |
| Cc1cc(-c2cccc(Cl)n2)nc2c(C(=O)NC(C3CC3)C(F)(F)F)cnn12 (stereo not shown) [III-237] | 0.05 µg/mL (≈ 0.122 µM) |
| Cc1cc(-c2cccnc2)nc2c(C(=O)NC(C3CC3)C(F)(F)F)cnn12 (stereo not shown) [III-35] | 6.5 µg/mL (≈ 17.3 µM) |
| Cc1cnc(-c2cc(C)n3ncc(C(=O)NC(C4CC4)C(F)(F)F)c3n2)o1 (stereo not shown) [III-253] | 0.7 µg/mL (≈ 1.85 µM) |
| C#CC(C)(C)NC(=O)c1cnn2c(C)cc(-c3cccc(OC)c3)nc12 [III-69] | 0.5 µg/mL (≈ 1.44 µM) |
| Cc1cc(N2CCCCC2)nc2c(C(=O)NC(C)(C)C3CC3)cnn12 [III-23] | 6.8 µg/mL (≈ 19.9 µM) |
| Cc1cc(-c2cncc(Cl)c2)nc2c(C(=O)NC(C)C(F)(F)F)cnn12 (stereo not shown) [III-200] | 1 µg/mL (≈ 2.61 µM) |
| Cc1cc(-c2ccccn2)n2ncc(C(=O)NC(C)(C)C3CC3)c2n1 [III-17] | 2.2 µg/mL (≈ 6.56 µM) |
| Cc1cc(-c2cccc(-c3ncncn3)c2)nc2c(C(=O)NC(C3CC3)C(F)(F)F)cnn12 (stereo not shown) [III-177] | 0.2 µg/mL (≈ 0.441 µM) |
